Laboratory results published in patent US7744927B2, “Methods of promoting hematopoietic and mesenchymal cell proliferation and differentiation” (University of Southern California, priority 1997, dated 2010).

Assays:
[1] = test system: Murine Peritoneal Macrophages; assay: Phagocytosis of opsonized yeast by murine peritoneal macrophages; format: cell-based, C57B1/6 mice; conditions: for # Macrophages with Yeast, Yeast # 0 / # Macrophages with Yeast, Yeast # 1-3 / # Macrophages with Yeast, Yeast # 4-6 / # Macrophages with Yeast, Yeast # 7-9 / # Yeast/MO / % Ingesting: 4 hours
Description: Resident peritoneal macrophages have very little phagocytic activity. Exposure of macrophages to inflammatory or activating agents will increase this macrophage function. Resident peritoneal macrophages were harvested from C57B1/6 mice or Sprague Dawley rats and resuspended at a concentration of 1×10^6 cells/ml in phosphate buffered saline (PBS). Five separate 0.5 ml cell aliquots were placed on a glass coverslip in a 35 mm petri dish. Prior to incubation, either 0.5 ml of PBS, AII, or AII analogues or fragments at between 1-1000 ug/ml final concentration was added to the individual cover slips. The dishes containing the cover slips were then incubated at 37° C. for 4 hours, after which the cover slips were washed 3 to 6 times with PBS. Opsonized yeast particles (Sigma Chemical Co.) (yeast opsonized with adult serum from the same species as that under study) were added to the cover slips and incubated for 2 hours, after which the cover slips were again washed with PBS and inverted onto a glass slide. The number of macrophages that ingested yeast and the number of yeast per macrophage ingested was then determined microscopically. At least 100 macrophages per coverslip were counted. The data from this study are summarized in Tables 3 and 4 and FIGS. 1 and 2.

rat MSC = assay: Rat mesenchymal stem cell proliferation in bone marrow culture; format: cell-based, Sprague Dawley rats; conditions: 1 to 100 μg/ml, in presence of serum
Description: These studies were conducted to determine the effect that AII would have on the proliferation of MSC. Bone marrow cells were harvested from the femur and tibia of female Sprague Dawley rats by flushing the bones with Dulbecco's Minimal Essential Medium-High Glucose (“DMEM-HG”) with a syringe and an 18 gauge needle. These cells were cultured in 24 well plates at 5×10^3 cells/mm^2 in DMEM-HG containing selected lots of fetal calf serum (FCS) and antibiotics (complete medium) at 37° C. incubator containing 5% CO2 in air. Twenty-four hours after the initiation of the cultures the medium and nonadherent cells were aspirated and fresh medium was added. To each of these several wells, complete medium with (1 to 100 μg/ml) or without AII was added. The migration of cells from the clones and their proliferation was followed by microscopic examination. Every 4 days the old medium was removed and fresh medium was added to the cultures. These studies were conducted to determine the effect that inclusion of AII analogues and fragments in the cell culture of MSC would have on the proliferation of these cells. Bone marrow cells were harvested from the femur and tibia of female Sprague Dawley rats by flushing the bones with Dulbecco's Minimal Essential Medium-High Glucose (“DMEM-HG”) with a syringe and an 18 gauge needle. […]

[2] = test system: cells that express alkaline phosphatase (rat bone marrow MSC); assay: Alkaline phosphatase expression by MSC in osteogenic medium; format: cell-based, Sprague Dawley rats; conditions: osteogenic medium 4 days, absorbance at 405 nm
Source text: Mesenchymal stem cells isolated from bone marrow and grown under appropriate conditions can express characteristics of multiple cell types, including cells involved in the generation of bone, cartilage, muscle and tendons. Osteogenic cells (cells that can form bone tissue) express the enzyme alkaline phosphatase when cultured in medium that drives them toward their osteogenic differentiation.
Bone marrow from female Sprague Dawley rats were harvested by flushing the femur with medium. The cells were placed in culture dishes 9 […], allowed to adhere overnight, and then placed in DMEM-LG medium containing antibiotics and 10% fetal calf serum together with varying concentrations of AII. At various times after culture initiation, the cells were washed with Tyrode's buffer and placed in osteogenic medium (DMEM-LG containing 10% fetal calf serum, 100 nM dexamethasone and 0.05 mM ascorbic acid) for 4 days prior to assessment of the level of alkaline phosphatase activity per well. Briefly, the wells were washed with Tyrode's buffer and 1 ml alkaline phosphatase substrate solution (50 mM glycine, pH 10.5, containing 1 mM magnesium chloride and 2.5 mM p-nitrophenyl phosphate) to each well. […] The absorbance of the resultant mixture at 405 nm was then determined via spectroscopy. The level of alkaline phosphatase activity is expressed as the level of absorbance per culture dish.

Asp-Arg-Val-Tyr-Ile-His-Pro-Phe [AII, known pressor agent, commercially available]
phagocytic capability of peritoneal macrophages ([1]; 10 μg/ml or greater): tremendously increased | # Macrophages with Yeast, Yeast # 0 ([1]; AII 1 μg/ml): 100 | # Macrophages with Yeast, Yeast # 1-3 ([1]; AII 1 μg/ml): 1 | # Macrophages with Yeast, Yeast # 4-6 ([1]; AII 1 μg/ml): 0 | # Macrophages with Yeast, Yeast # 7-9 ([1]; AII 1 μg/ml): 0 | # Yeast/MO ([1]; AII 1 μg/ml): 0.01 | % Ingesting ([1]; AII 1 μg/ml): 1% | # Macrophages with Yeast, Yeast # 0 ([1]; AII 10 μg/ml): 100 | # Macrophages with Yeast, Yeast # 1-3 ([1]; AII 10 μg/ml): 3 | # Macrophages with Yeast, Yeast # 4-6 ([1]; AII 10 μg/ml): 4 | # Macrophages with Yeast, Yeast # 7-9 ([1]; AII 10 μg/ml): 0 | # Yeast/MO ([1]; AII 10 μg/ml): 0.24 | % Ingesting ([1]; AII 10 μg/ml): 6.5% | # Macrophages with Yeast, Yeast # 0 ([1]; AII 100 μg/ml): 100 | # Macrophages with Yeast, Yeast # 1-3 ([1]; AII 100 μg/ml): 10 | # Macrophages with Yeast, Yeast # 4-6 ([1]; AII 100 μg/ml): 10 | # Macrophages with Yeast, Yeast # 7-9 ([1]; AII 100 μg/ml): 0 | # Yeast/MO ([1]; AII 100 μg/ml): 0.58 | # Yeast/MO ([1]; AII 1000 μg/ml (highest concentration)): 1 | # Macrophages with Yeast, Yeast # 0 ([1]; AII 1000 μg/ml): 100 | # Macrophages with Yeast, Yeast # 1-3 ([1]; AII 1000 μg/ml): 20 | # Macrophages with Yeast, Yeast # 4-6 ([1]; AII 1000 μg/ml): 20 | # Macrophages with Yeast, Yeast # 7-9 ([1]; AII 1000 μg/ml): 0 | number of sites from which the MSC were migrating (CFU) (rat MSC): significantly increased | size (number of cells) of the colonies formed (rat MSC): significantly increased | proliferation of cells that express alkaline phosphatase [2]: can accelerate the proliferation of cells that express alkaline phosphatase
